The results in this text go back to patent publication EP1027887B1, “Matrix controlled release device” (Pfizer Products Inc., priority 1999, dated 2000).

The AUC is concentration integrated over time. Read a low AUC as low exposure. A word on the solubility: it is the concentration that dissolves in the medium under given conditions. Higher therefore signals a readily soluble substance.

Molecules are shown by their SMILES. ≈ marks a conversion by molar mass, not a printed value.

Holding throughout (type): physicochemical
A short description of series [1]: Water solubility of the drug.
Series [2] is described as follows: In vitro dissolution test in 30 ml MFD solution (Reference Example 5). The procedure: (§1) Phosphate buffered saline solution (PBS) was prepared comprising 20 mM sodium phosphate, […] potassium phosphate, 87 mM NaCl and 0.2 mM KCl, adjusted to pH 6.5. Four in vitro dissolution tests were performed in 35 mL of the PBS solution at 37°C to test the effectiveness of drug release from the dosage composition of the invention as measured against Controls A, B and C. Drug concentrations over time were determined by periodically withdrawing samples of each of the four solutions, centrifuging the samples for 1 minute at 13,000 rpm to pellet any undissolved drug, sampling the supernate, and analyzing the sample by High Performance Liquid Chromatography (HPLC) to thereby calculate drug concentrations.
(§2) A Model Fasted Duodenum (MFD) solution which mimics the chemical environment in the small intestine was prepared, comprising the PBS solution described in Example 1 mixed with 14.7 mM sodium taurocholic acid and 2.8 mM of 1-palmitoyl-2-oleyl-sn-glycero-3-phosphocholine. Four in vitro dissolution tests were performed in 500 mL of the so-prepared MFD solution to test the effectiveness of drug release from the dosage composition of the invention against Controls D, E and F. The sampling and analysis were carried out as in Example 1.
An MFD solution was prepared as in Example 2. Four in vitro dissolution tests were performed in 30 ml of the MFD solution to test the effectiveness of drug release from the dosage composition of the invention against Controls J, K and L. The sampling and analysis were carried out as in Example 1.

Series [3] is described as follows: In vitro dissolution test in 500 mL Model Fasted Duodenum (MFD) solution (Example 2). Particulars: 500 mL MFD solution. As to the method: as §1, §2
A short description of series [4]: In vitro dissolution test in 35 mL PBS solution (Example 1). The conditions noted are these: 35 mL PBS pH 6.5, 37°C. The procedure: as §1
Series [5] can be described thus: In vitro dissolution test in 40 mL PBS solution (Reference Example 3). The conditions noted are these: 37°C. The procedure: as §1
As a control (Control G), tablets were similarly prepared except rather than using the drug/CAP solid dispersion, a mixture of 1 part crystalline drug to 3 parts CAP was used. As a second control (Control H), 26 mg of crystalline drug alone was used. As a third control (Control I), 105.3 mg of the solid dispersion with no erodible matrix was used. In order to determine the drug release profile of the dosage form of the present invention as compared to the controls, in vitro dissolution tests in 40 mL of the PBS solution of Example 1 at 37°C were performed as in Example 1.

In series [1], `CN[C@H]1CC[C@@H](c2ccc(Cl)c(Cl)c2)c2ccccc21.Cl` (relative stereo) [(1S-cis)-4-(3,4-dichlorophenyl)-1,2,3,4-tetrahydro-N-methyl-1-napthalenamine hydrochloride] showed a water solubility of 70 µg/mL.
With `CN[C@H]1CC[C@@H](c2ccc(Cl)c(Cl)c2)c2ccccc21.Cl` (relative stereo) [Control K, (1S-cis)-4-(3,4-dichlorophenyl)-1,2,3,4-tetrahydro-N-methyl-1-napthalenamine hydrochloride], the AUC in series [2] (time 0 min) was 0 µg·min/mL; in series [2] (time 10 min), 1073 µg·min/mL; in series [2] (time 20 min), 5459 µg·min/mL; in series [2] (time 40 min), 16706 µg·min/mL; in series [2] (time 90 min), 37083 µg·min/mL; in series [2] (time 120 min) it was 40231 µg·min/mL. In addition, the AUC in series [2] (time 240 min) is 52796 µg·min/mL; in series [2] (time 360 min), 70528 µg·min/mL; in series [2] (time 540 min), 108647 µg·min/mL. Besides, the “[Drug]” value in series [2] (time 0 min) is recorded as 0 µg/mL; in series [2] (time 10 min), 0 µg/mL; in series [2] (time 20 min), 358 µg/mL; in series [2] (time 40 min) it was 520 µg/mL; in series [2] (time 90 min), 605 µg/mL; in series [2] (time 120 min), 210 µg/mL. Also, the “[Drug]” value in series [2] (time 240 min) was found to be 130 µg/mL; in series [2] (time 360 min), 159 µg/mL; in series [2] (time 540 min), 136 µg/mL; in series [2] (time 1200 min), 128 µg/mL.
In the case of `CON(C)C(=O)C(O)[C@H](Cc1ccccc1)NC(=O)c1cc2cc(Cl)ccc2[nH]1` (stereo in doubt) [Control E, [R-(R*S*)]-5 chloro-N-[2-hydroxy-3-[(methoxymethylamino)-3-oxo-1(phenylmethyl)propyl]propyl]-1H-indole-2-carboxymide], the AUC in series [3] (time 0 min) is 0 µg·min/mL; in series [3] (time 10 min), 21 µg·min/mL; in series [3] (time 20 min) it was 72 µg·min/mL; in series [3] (time 40 min) it was 172 µg·min/mL; in series [3] (time 90 min) it was 795 µg·min/mL; in series [3] (time 120 min) it was 1281 µg·min/mL. Besides, the AUC amounted to 2219 µg·min/mL in series [3] (time 180 min); 2992 µg·min/mL in series [3] (time 240 min); 4030 µg·min/mL in series [3] (time 360 min); 5756 µg·min/mL in series [3] (time 525 min); 7525 µg·min/mL in series [3] (time 720 min). The “[Drug]” value in series [3] (time 0 min) is listed as 0.0 µg/mL; in series [3] (time 10 min) it was 6.9 µg/mL; in series [3] (time 20 min), 3.2 µg/mL; in series [3] (time 40 min), 6.8 µg/mL; in series [3] (time 90 min) it was 18.1 µg/mL; in series [3] (time 120 min) it was 14.3 µg/mL. The “[Drug]” value in series [3] (time 180 min) was found to be 17.0 µg/mL; in series [3] (time 240 min), 8.8 µg/mL; in series [3] (time 360 min), 8.5 µg/mL; in series [3] (time 525 min), 10.7 µg/mL; in series [3] (time 720 min), 9.0 µg/mL; in series [3] (time 1200 min), 8.0 µg/mL.
With `O=C(N[C@@H](Cc1ccccc1)[C@@H](O)C(=O)N1C[C@@H](O)[C@@H](O)C1)c1cc2cc(Cl)ccc2[nH]1` [Control B, 5-chloro-1H-indole-2-carboxylic acid [(1S) -benzyl-3-((3R,4S) -dihydroxypyrrolidin-1-yl-) - (2R) -hydroxy-3-oxypropyl]amide], the AUC in series [4] (time 0 min) is 0 µg·min/mL; in series [4] (time 4 min), 180 µg·min/mL; in series [4] (time 10 min), 754 µg·min/mL; in series [4] (time 20 min) it was 1753 µg·min/mL; in series [4] (time 40 min) it was 4402 µg·min/mL; in series [4] (time 90 min) it was 12252 µg·min/mL. The AUC in series [4] (time 120 min) stood at 16937 µg·min/mL; in series [4] (time 180 min) it was 25991 µg·min/mL; in series [4] (time 240 min), 34362 µg·min/mL; in series [4] (time 360 min) it was 52528 µg·min/mL; in series [4] (time 525 min) it was 80574 µg·min/mL; in series [4] (time 720 min), 113346 µg·min/mL. For the same compound, the “[Drug]” value was 0.0 µg/mL in series [4] (time 0 min); 90.1 µg/mL in series [4] (time 4 min); 101.0 µg/mL in series [4] (time 10 min); 98.8 µg/mL in series [4] (time 20 min); 166.1 µg/mL in series [4] (time 40 min); 147.9 µg/mL in series [4] (time 90 min). The “[Drug]” value in series [4] (time 120 min) is on record as 164.5 µg/mL; in series [4] (time 180 min), 137.3 µg/mL; in series [4] (time 240 min) it was 141.8 µg/mL; in series [4] (time 360 min), 161.0 µg/mL; in series [4] (time 525 min), 179.0 µg/mL; in series [4] (time 720 min), 157.2 µg/mL.
In the case of `O=C(N[C@@H](Cc1ccccc1)[C@@H](O)C(=O)N1C[C@@H](O)[C@@H](O)C1)c1cc2cc(Cl)ccc2[nH]1` [Control H, 5-chloro-1H-indole-2-carboxylic acid [(1S) -benzyl-3-((3R,4S) -dihydroxypyrrolidin-1-yl-) - (2R) -hydroxy-3-oxypropyl]amide], the AUC in series [5] (time 0 min) is 0 µg·min/mL; in series [5] (time 10 min), 0 µg·min/mL; in series [5] (time 20 min), 323 µg·min/mL; in series [5] (time 40 min), 1513 µg·min/mL; in series [5] (time 90 min), 3906 µg·min/mL; in series [5] (time 120 min), 9587 µg·min/mL. The AUC came to 13186 µg·min/mL in series [5] (time 180 min); 21392 µg·min/mL in series [5] (time 240 min); 31055 µg·min/mL in series [5] (time 360 min); 49395 µg·min/mL in series [5] (time 540 min); 73701 µg·min/mL in series [5] (time 720 min). For the same compound, the “[Drug]” value in series [5] (time 0 min) is reported as 0.0 µg/mL; in series [5] (time 10 min) it was 107.8 µg/mL; in series [5] (time 20 min) it was 130.1 µg/mL; in series [5] (time 40 min) it was 109.1 µg/mL; in series [5] (time 90 min), 118.1 µg/mL; in series [5] (time 120 min), 121.8 µg/mL. In addition, the “[Drug]” value in series [5] (time 180 min) worked out at 151.7 µg/mL; in series [5] (time 240 min), 170.4 µg/mL; in series [5] (time 360 min) it was 135.3 µg/mL; in series [5] (time 540 min), 134.8 µg/mL; in series [5] (time 720 min), 168.3 µg/mL.
In series [1], `CON(C)C(=O)[C@H](O)[C@H](Cc1ccccc1)NC(=O)c1cc2cc(Cl)ccc2[nH]1` [[R-(R*S*)]-5 chloro-N-[2-hydroxy-3-[(methoxymethylamino)-3-oxo-1(phenylmethyl)propyl]propyl]-1H-indole-2-carboxymide] registered a solubility of 1 µg/mL (≈ 2.4 µM).
